Assay results: US12286401B2, “Small molecules that sensitize HIV-1 infected cells to antibody dependent cellular cytotoxicity” (THE TRUSTEES OF THE UNIVERSITY OF PENNSYLVANIA, priority 2018, dated 2025)

How the values were obtained:
[1] = tested on: CH58TF infected primary CD4+ T-cells; assay: HIV+ patient sera/plasma recognition of CH58TF infected primary CD4+ T-cells (flow cytometry cell-surface staining); type: cell-based, HIV-1; settings: for fold induction at 50 µM: Human immunodeficiency virus 1, T-cell, read-out: Fold Over DMSO (patient sera, n = 3); for recognition of infected cells by plasma from 15 HIV-1-infected individuals: 50 μM, 1:1000 diluted HIV+ plasma, result in words
In short: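 Primary CD4+ T cells from PBMC infected with HIV-1 CH58TF for 48 h, then surface-stained with 1:1000 HIV+ plasma or 5 μg/ml 17b plus 50 μM MCG analogs or DMSO; Alexa Fluor 647 anti-human IgG detection by flow cytometry, infected cells gated p24+. Values are fold change over DMSO.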

[2] = tested on: CH58TF infected primary CD4+ T-cells; assay: Recognition of HIV-1 infected cells by 17b (flow cytometry cell-surface staining); type: cell-based; settings: for fold induction at 50 µM: Human immunodeficiency virus 1, T-cell, read-out: Fold Over DMSO (17b, n = 1); for recognition of infected cells by the anti-CoRBS 17b antibody: 50 μM, 5 μg/ml 17b, result in words
In short: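 Primary CD4+ T cells infected 48 h with HIV-1 CH58TF, stained with 5 μg/ml 17b plus MCG analogs (50 μM), (+)-BNM-III-170 or DMSO vehicle. Detection by Alexa Fluor 647 anti-human IgG secondary and flow cytometry. Infected cells gated as p24+ living cells.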

[3] = tested on: primary CD4+ T cells infected with CH58 TF; assay: FACS-based ADCC assay with patient sera/plasma; type: cell-based, HIV-1; settings: for fold induction at 50 µM: Human immunodeficiency virus 1, CD4+ T, read-out: Fold over DMSO (% ADCC with ps, n = 3); for ADCC responses against infected cells: 50 μM, 1/1,000 dilution of plasma from 15 HIV-1-infected individuals, result in words
Method: Measurement of antibody or serum-mediated ADCC is performed with a FACS-based assay as described in Prevost, “Influence of the Envelope gp120 Phe 43 Cavity on HIV-1 Sensitivity to Antibody-Dependent Cell-Mediated Cytotoxicity Responses,” 2017, J. Virol 91; Richard, “CD4 mimetics sensitize HIV-1-infected cells to ADCC,” 2015, Proc. Natl. Acad. Sci. USA, 112:E2687-2694; Richard, “Small CD4 Mimetics Prevent HIV-1 Uninfected Bystander CD4+ T Cell Killing Mediated by Antibody-dependent Cell-mediated Cytotoxicity,” 2016, EBioMedicine 3:122-134; Veillette, “The HIV-1 gp120 CD4-Bound Conformation Is Preferentially Targeted by Antibody-Dependent Cellular Cytotoxicity-Mediating Antibodies in Sera from HIV-1-Infected Individuals,” 2015, J. Virol., 89:545-551; Veillette, “Interaction with cellular CD4 exposes HIV-1 envelope epitopes targeted by antibody-dependent cell-mediated cytotoxicity,” 2014, J. Virol., 88:2633-2644; Richard, “Uninfected Bystander Cells Impact the Measurement of HIV-Specific Antibody-Dependent Cellular Cytotoxicity Responses,” 2018, MBio. 9(2): e00358-18; Richard, “BST-2 Expression Modulates Small CD4-Mimetic Sensitization of HIV-1-Infected Cells to Antibody-Dependent Cellular Cytotoxicity,” 2017, J. Virol. 91(11):e00219-17. This assay specifically measures ADCC activity against productively infected cells and is not affected by the confounding effect of uninfected bystander cells. See, Richard, “Uninfected Bystander Cells Impact the Measurement of HIV-Specific Antibody-Dependent Cellular Cytotoxicity Responses,” 2018, MBio., 9(2): e00358-18.
Briefly, primary CD4+ T cells isolated from healthy HIV-1-negative individuals or CEM-NKr cells are infected with HIV viruses. Forty-eight hours post-infection, cells are incubated with autologous PBMC (effector:target cell ratio of 10:1) in the presence of 1:1000 HIV+ sera dilution or anti-Env Abs (5 μg/mL) alone or in combination with increasing concentration of MCG analogs. Infected cells are identified by intracellular staining for HIV-1 p24 or GFP expression (for GFP expressing infectious molecular clones) and the percentage of cytotoxicity is calculated the following formula as described.
For cells infected with HIV-1 primary isolates, infected cells are identified by intracellular staining for HIV-1 p24. In that context, the percentage of cytotoxicity is calculated with the following formula by gating infected lived target cells: […]
The ADCC susceptibility of primary CD4+ T cells infected with CH58 TF mediated by HIV+ plasma+/−MCG analogs also was evaluated using a FACS-based assay as previously reported. See, Ding, 2016, J Virol., 90:2127-2134; and Richard, 2018, MBio 9.
Briefly, Primary CD4 T cells isolated from PBMC were infected with HIV-1CH58TF for 48 hours. For cell surface staining, 5 μg/ml 17b (FIG. 15A) or 1:1000 diluted HIV+ plasma (n=15) (FIG. 15B) were used in the presence of the different MCG analogs (50 μM), (+)-BNM-III-170 or with an equivalent volume of vehicle (DMSO). An Alexa Fluor 647-conjugated anti-human IgG secondary Ab was then used for fluorescent labeling. For ADCC (FIG. 15C), infected cells were used as target cells in a FACS-based ADCC assay that measures the killing of infected (p24+ cells). See, Madani, 2016, J. Virol., 90:5031-5046. The assay determines susceptibility to ADCC mediated by a 1/1,000 dilution of plasma from 15 HIV-1-infected individuals in the presence of the different MCG analogs (50 μM), (+)-BNM-III-170 (50 μM) or with an equivalent volume of vehicle (DMSO). Correlation between cell-surface staining with HIV+ plasma and ADCC was calculated using the Spearman rank correlation (FIG. 15D).

Compound | fold induction at 50 µM [1] | fold induction at 50 µM [2] | fold induction at 50 µM [3] | recognition of infected cells by plasma from 15 HIV-1-infected individuals [1] | recognition of infected cells by the anti-CoRBS 17b antibody [2] | ADCC responses against infected cells [3]
CS(=O)(=O)N1CCC[C@H](C(=O)Nc2ccc(Br)cc2)C1 [(S)-MCG-III-027-A02] | 2.08 | 1.65 | 0.291 |  |  | 
CS(=O)(=O)N1CCC[C@H](C(=O)Nc2ccc(F)cc2)C1 [(S)-MCG-III-027-A03] | 1.52 | 1.12 | 0.969 |  |  | 
CS(=O)(=O)N1CCC[C@H](C(=O)Nc2cccc(Cl)c2)C1 [(S)-MCG-III-027-B01] | 1.37 | 1.04 | 0.87 |  |  | 
CS(=O)(=O)N1CCC[C@H](C(=O)Nc2cccc(Br)c2)C1 [(S)-MCG-III-027-B02] | 1.62 | 1.06 | 0.74 |  |  | 
CS(=O)(=O)N1CCC[C@H](C(=O)Nc2cccc(F)c2)C1 [(S)-MCG-III-027-B03] | 1.44 | 1.05 | 1.17 |  |  | 
CS(=O)(=O)N1CCC[C@H](C(=O)Nc2cccc(C(F)(F)F)c2)C1 [(S)-MCG-III-027-B04] | 1.47 | 1.01 | 0.129 |  |  | 
COc1cccc(NC(=O)[C@H]2CCCN(S(C)(=O)=O)C2)c1 [(S)-MCG-III-027-B05] | 1.71 | 1.03 | 0.361 |  |  | 
CS(=O)(=O)N1CCC[C@H](C(=O)Nc2ccccc2Cl)C1 [(S)-MCG-III-027-C01] | 1.06 | 1.14 | 0.722 |  |  | 
CS(=O)(=O)N1CCC[C@H](C(=O)Nc2ccc(F)cc2F)C1 [(S)-MCG-III-027-D04] | 1.24 | 1.17 | 1.37 |  |  | 
CS(=O)(=O)N1CCC[C@H](C(=O)Nc2ccc(Cl)c(F)c2)C1 [(S)-MCG-III-027-D05] | 2.83 | 2.22 | 1.01 | enhanced the recognition of infected cells | enhanced the recognition of infected cells | enhanced ADCC responses
CCS(=O)(=O)N1CCC[C@H](C(=O)Nc2ccc(Cl)c(F)c2)C1 [(S)-MCG-III-085-C01] | 3.28 | 5.7 | 0.487 |  |  | 
Cn1cnc(S(=O)(=O)N2CCC[C@H](C(=O)Nc3ccc(Cl)c(F)c3)C2)c1 [(S)-MCG-III-116-A02] | 1.97 |  | 1.86 |  |  | 
COC(=O)N1CCC[C@H](C(=O)Nc2ccc(Cl)c(F)c2)C1 [(S)-MCG-III-188-A01] | 2.69 | 7.11 | 2.27 | enhanced the recognition of infected cells | enhanced the recognition of infected cells | enhanced ADCC responses
CCOC(=O)N1CCC[C@H](C(=O)Nc2ccc(Cl)c(F)c2)C1 [(S)-MCG-III-188-A02] | 3.83 | 6.35 | 0.867 | enhanced the recognition of infected cells | enhanced the recognition of infected cells | enhanced ADCC responses
CCCNC(=O)N1CCC[C@H](C(=O)Nc2ccc(Cl)c(F)c2)C1 [(S)-MCG-IV-031-A05] |  |  |  | enhanced the recognition of infected cells | enhanced the recognition of infected cells | enhanced ADCC responses
NCCNC(=O)N1CCC[C@H](C(=O)Nc2ccc(Cl)c(F)c2)C1 [(S)-MCG-IV-210] |  |  |  | enhanced the recognition of infected cells | enhanced the recognition of infected cells | enhanced ADCC responses
O=C(Nc1ccc(Cl)c(F)c1)C1CCCN(S(=O)(=O)c2ccccc2)C1 (stereo not drawn) [MCG-III-157-B03] | 3.73 |  | 1.94 |  |  | 
Cn1cnc(S(=O)(=O)N2CCCC(C(=O)Nc3ccc(Cl)c(F)c3)C2)c1 (stereo not drawn) [MCG-III-157-B04] | 2.4 |  | 1.73 |  |  | 
O=C(Nc1ccc(Cl)c(F)c1)C1CCCOC1 (stereo not drawn) [MCG-III-207] | 1.92 | 3.69 | 1.59 |  |  | 
